According to patent US20060069132A1, “Azolecarboxamide herbicides” (priority 2004, published 2006):

Experiments:
lambsquarters = test: Test B pre-/postemergence herbicide test; format: in vivo, Chenopodium album
Procedure, shortened: (§1)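 Evaluation is visual, comparing treated with control plants on a scale where 0 means no effect and 100 means full control. Treatments were preemergence, or postemergence on seedlings 2–18 cm tall, and held 13–15 days in the greenhouse.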

giant foxtail = test: Test B pre-/postemergence herbicide test; format: in vivo, Setaria faberi
Procedure, shortened: as §1

velvetleaf = test: Test B pre-/postemergence herbicide test; format: in vivo, Abutilon theophrasti
Procedure, shortened: as §1

[1] = test system: small flower umbrella sedge; test: Test B flooded paddy test; format: in vivo, Cyperus difformis; details: 1000 g ai/ha, visual rating, scale 0 to 100 (0 no effect, 100 complete control), 13 to 15 days
Procedure, shortened: (§2)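 After treating 2-leaf paddy plants or 2–18 cm postemergence plants (1 to 4 leaves) with formulated chemical, researchers kept them in a greenhouse for 13–15 days. Effects were judged visually versus controls: 0 indicates none, 100 total control.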

barnyardgrass [2] = test: Test B flooded paddy test; format: in vivo, Echinochloa crus-galli; details: 1000 g ai/ha, visual rating, scale 0 to 100 (0 no effect, 100 complete control), 13 to 15 days
Procedure, shortened: as §2

pigweed = test: Test B pre-/postemergence herbicide test; format: in vivo, Amaranthus retroflexus
Procedure, shortened: as §1

ducksalad = test: Test B flooded paddy test; format: in vivo, Heteranthera limosa; details: 1000 g ai/ha, visual rating, scale 0 to 100 (0 no effect, 100 complete control), 13 to 15 days
Procedure, shortened: as §2

blackgrass = test: Test B postemergence herbicide test; format: in vivo, Alopecurus myosuroides; details: scale 0 (no effect) to 100 (complete control); for Blackgrass plant response rating: 125 g ai/ha; for Plant response rating, Blackgrass: 500 g ai/ha, visual rating after 13 to 15 days
Procedure, shortened: as §2

rice = test: Test B flooded paddy test; format: in vivo, Oryza sativa; details: 1000 g ai/ha, visual rating, scale 0 to 100 (0 no effect, 100 complete control), 13 to 15 days
Procedure, shortened: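 Each value is a visual 0–100 response rating taken against controls 13 to 15 days after treatment in the greenhouse. Plants received formulated chemical postemergence at the 1- to 4-leaf stage or, in flooded paddy, at the 2-leaf stage.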

barnyardgrass [3] = test: Test B pre-/postemergence herbicide test; format: in vivo, Echinochloa crus-galli
Procedure, shortened: (§3)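 Flooded paddy rice and barnyardgrass were treated at the 2-leaf stage; upland plantings received compound either on sown seed or on 1- to 4-leaf seedlings. All were kept 13–15 days in a greenhouse and scored visually, 0–100, relative to untreated plants.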

wild oat = test: Test B postemergence herbicide test; format: in vivo, Avena fatua; details: scale 0 (no effect) to 100 (complete control); for Oat, Wild plant response rating: 125 g ai/ha; for Plant response rating, Oat, Wild: 500 g ai/ha, visual rating after 13 to 15 days
Procedure, shortened: (§4)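 Formulated test chemicals went onto postemergence plants measuring 2 to 18 cm, at one to four leaves. For the paddy assay, species had reached two leaves. Scoring took place 13–15 days later by eye, relative to untreated plants, using 0 for no effect up to 100 for full control.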

Surinam grass = test: Test B pre-/postemergence herbicide test; format: in vivo, Urochloa decumbens
Procedure, shortened: as §1

wheat = test: Test B postemergence herbicide test; format: in vivo, Triticum aestivum; set-up: key to Wheat plant response rating: 0 = no effect, 100 = complete control; details: scale 0 (no effect) to 100 (complete control); for Plant response rating, Wheat: Postemergence, 500 g ai/ha, visual rating after 13 to 15 days
Procedure, shortened: as §4

morningglory = test: Test B pre-/postemergence herbicide test; format: in vivo, Ipomoea coccinea
Procedure, shortened: as §3

cocklebur = test: Test B pre-/postemergence herbicide test; format: in vivo, Xanthium strumarium
Procedure, shortened: as §3

[4] = Postemergence, 125 g ai/ha, scale 0 (no effect) to 100 (complete control)
[5] = Postemergence, 500 g ai/ha, visual rating after 13 to 15 days, scale 0 (no effect) to 100 (complete control)
[6] = Preemergence, 500 g ai/ha, scale 0 to 100
[7] = preemergence, 125 g ai/ha, 0 to 100 scale, 0 is no effect, 100 is complete control
[8] = 500 g ai/ha, visual rating 0-100, 0 no effect, 100 complete control, preemergence
[9] = postemergence, 125 g ai/ha, visual rating, scale 0 (no effect) to 100 (complete control)

Compound: CCCCn1nc(C(C)(C)C)cc1C(=O)Nc1cccc(C(=O)NCC)c1 [Compound 41]
- Lambsquarters plant response rating (lambsquarters; [4]): 60
- Plant response rating, Lambsquarters (lambsquarters; [5]): 70
- Lambsquarters plant response rating (lambsquarters; [6]): 100
- Plant response rating, Lambsquarters (lambsquarters; [7]): 80
- Foxtail, Giant plant response rating (giant foxtail; [4]): 10
- Plant response rating, Foxtail, Giant (giant foxtail; [5]): 20
- Foxtail, Giant plant response rating (giant foxtail; [6]): 70
- Plant response rating, Foxtail, Giant (giant foxtail; [7]): 10
- Plant response rating, Velvetleaf (velvetleaf; [5]): 20
- Velvetleaf plant response rating (velvetleaf; [6]): 10
- Plant response rating, Velvetleaf (velvetleaf; [7]): 0
- Sedge, Umbrella plant response rating [1]: 70
- Barnyardgrass plant response rating (barnyardgrass [2]): 50
- Plant response rating, Pigweed (pigweed; [5]): 70
- Pigweed plant response rating (pigweed; [6]): 70
- Plant response rating, Pigweed (pigweed; [7]): 70
- Ducksalad plant response rating (ducksalad): 60
- Blackgrass plant response rating (blackgrass; Postemergence): 10
- Plant response rating, Blackgrass (blackgrass; Postemergence): 20
- Rice plant response rating (rice): 20
- Barnyardgrass plant response rating (barnyardgrass [3]; [4]): 10
- Plant response rating, Barnyardgrass (barnyardgrass [3]; [5]): 20
- Barnyardgrass plant response rating (barnyardgrass [3]; [6]): 80
- Oat, Wild plant response rating (wild oat; Postemergence): 10
- Plant response rating, Oat, Wild (wild oat; Postemergence): 10
- Plant response rating, Surinam Grass (Surinam grass; [5]): 20
- Surinam Grass plant response rating (Surinam grass; [6]): 60
- Plant response rating, Surinam Grass (Surinam grass; [7]): 10
- Plant response rating, Wheat (wheat): 10
- Morningglory plant response rating (morningglory; [6]): 10
- Plant response rating, Morningglory (morningglory; [7]): 0
- Cocklebur plant response rating (cocklebur; [4]): 10
- Plant response rating, Cocklebur (cocklebur; [5]): 40
- Cocklebur plant response rating (cocklebur; [6]): 0

Compound: CC(=NO)c1cccc(NC(=O)c2cc(C(C)(C)C)nn2C)c1 [Compound 102]
- Plant response rating, Lambsquarters (lambsquarters; [8]): 100
- Plant response rating, Lambsquarters (lambsquarters; [5]): 20
- Lambsquarters plant response rating (lambsquarters; [9]): 10
- Plant response rating, Lambsquarters (lambsquarters; [7]): 100
- Plant response rating, Foxtail, Giant (giant foxtail; [8]): 80
- Plant response rating, Foxtail, Giant (giant foxtail; [5]): 30
- Foxtail, Giant plant response rating (giant foxtail; [9]): 10
- Plant response rating, Foxtail, Giant (giant foxtail; [7]): 30
- Plant response rating, Velvetleaf (velvetleaf; [8]): 70
- Plant response rating, Velvetleaf (velvetleaf; [5]): 20
- Velvetleaf plant response rating (velvetleaf; [9]): 0
- Plant response rating, Velvetleaf (velvetleaf; [7]): 0
- Sedge, Umbrella plant response rating [1]: 100
- Barnyardgrass plant response rating (barnyardgrass [2]): 80
- Plant response rating, Pigweed (pigweed; [8]): 100
- Plant response rating, Pigweed (pigweed; [5]): 100
- Pigweed plant response rating (pigweed; [9]): 80
- Plant response rating, Pigweed (pigweed; [7]): 90
- Ducksalad plant response rating (ducksalad): 90
- Plant response rating, Blackgrass (blackgrass; Postemergence): 20
- Blackgrass plant response rating (blackgrass; postemergence, visual rating): 0
- Rice plant response rating (rice): 50
- Plant response rating, Barnyardgrass (barnyardgrass [3]; [8]): 90
- Plant response rating, Barnyardgrass (barnyardgrass [3]; [5]): 40
- Barnyardgrass plant response rating (barnyardgrass [3]; [9]): 0
- Plant response rating, Barnyardgrass (barnyardgrass [3]; [7]): 80
- Plant response rating, Oat, Wild (wild oat; Postemergence): 40
- Oat, Wild plant response rating (wild oat; postemergence, visual rating): 20
- Plant response rating, Surinam Grass (Surinam grass; [8]): 40
- Plant response rating, Surinam Grass (Surinam grass; [5]): 100
- Surinam Grass plant response rating (Surinam grass; [9]): 70
- Plant response rating, Surinam Grass (Surinam grass; [7]): 20
- Plant response rating, Wheat (wheat): 20
- Wheat plant response rating (wheat; postemergence, 125 g ai/ha, visual rating): 0
- Plant response rating, Morningglory (morningglory; [8]): 100
- Plant response rating, Morningglory (morningglory; [5]): 30
- Morningglory plant response rating (morningglory; [9]): 10
- Plant response rating, Morningglory (morningglory; [7]): 50
- Plant response rating, Cocklebur (cocklebur; [8]): 0
- Plant response rating, Cocklebur (cocklebur; [5]): 50
- Cocklebur plant response rating (cocklebur; [9]): 30
- Plant response rating, Cocklebur (cocklebur; [7]): 0
